PMC6831561, “Pharmacological and Behavioral Effects of the Synthetic Cannabinoid AKB48 in Rats” (Frontiers in Neuroscience, 2019)

Tested on: extracellular DA levels
Assay: In vivo brain microdialysis of DA (NAc shell, NAc core, mPFC)
Design: species or system rats
Excerpt: Male Sprague-Dawley rats were anaesthetized with isoflurane gas, and maintained under anaesthesia using a breathing tube under a scavenging system while placed in a stereotaxic apparatus and implanted with vertical dialysis probes (1.5 or 3 mm dialyzing portion for NAc or mPFC, respectively) in the NAc shell (A + 2.2, L + 1.0 from bregma, V-7.8 from dura) or core (A + 1.4; L + 1.6 from bregma; V-7.6 from dura) or in the mPFC (A + 3.7, L + 0.8 from bregma, V-5.0 from dura), according to the rat brain atlas ([Paxinos and Watson, 1998]).
On the day following surgery, probes were perfused with Ringer’s solution (147 mM NaCl, 4 mM KCl, 2.2 mM CaCl2) at a constant rate of 1 μL/min. Dialyzate samples (10 μL) were injected into an HPLC equipped with a reverse-phase column (C8 3.5 μm, Waters, United States) and a coulometric detector (ESA, Coulochem II) to quantify DA. The first electrode of the detector was set at + 130 mV (oxidation), and the second at −175 mV (reduction). The composition of the mobile phase was: 50 mM NaH2PO4, 0.1 mM Na2-EDTA, 0.5 mM n-octyl sodium sulfate, 15% (v/v) methanol, pH 5.5. The sensitivity of the assay for DA was 5 fmol/sample. At the end of the experiment, animals were sacrificed and their brains removed and stored in formalin (8%) for histological examination to verify the correct placement of the microdialysis probe.

With `CCCCCn1nc(C(=O)NC23CC4CC(CC(C4)C2)C3)c2ccccc21` [AKB48, N-(1-adamantyl)-1-pentyl-1H-indazole-3-carboxamide] the “DA levels in the NAc shell” value (AKB48 0.25 mg/kg i.p.) was “increased”, the “max increase of DA in the NAc shell” value (AKB48 0.25 mg/kg ip, at 20 and 40 min) was “about 40%” and the “DA levels in the mPFC” value (AKB48 0.125 and 0.25 mg/kg i.p.) was “No significant effects”. For the same molecule, the “DA levels in the NAc shell” value (AKB48 lower or higher doses (0.125 and 0.5 mg/kg i.p.)) was “ineffective”.
